In patent EP0326329B1, “Quinazoline derivatives useful as insecticides” (Dow AgroSciences LLC, priority 1988, dated 1989):

tested on: Southern corn rootworm (Diabrotica undecimpuctata howardi Barber); experiment: Mite/insect screen, soil treatment (CRW); format: in vivo; details: Diabrotica; percent mortality; soil treatment, CRW rate 12.00 ppm; read-out: CRW RESULTS %
Method in brief: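 Five 2–3 instar larvae were placed on dry sandy soil with a presoaked corn seed after the soil had received 1 mL of compound solution and dried 6–12 h; cups were kept capped at 23°C. Mortality (%) and phytotoxicity were read after standard exposure. Formulation: acetone/alcohol with emulsifiers, water-diluted.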

| SMILES | mortality at 12 ppm |
| --- | --- |
| FC(F)(F)c1cccc(Oc2ccc(CCOc3ncnc4ccccc34)cc2)c1 [Example 188, 4-[2-[4-[3-(trifluoromethyl)phenoxy]phenyl]ethoxy]quinazoline] | 0% |
| Cc1ccc2ncnc(NCCc3cccc(Oc4ccccc4)c3)c2c1 [Example 190, 6-methyl-N-[2-(3-phenoxyphenyl)ethyl]-4-quinazolinamine] | 0% |
| CC(C)c1ccccc1CCOc1ncnc2c(F)cccc12 [Example 195, 8-fluoro-4-[2-[2-(i-propyl)phenyl]ethoxy]quinazoline] | 0% |
| FC(F)(F)c1cccc(CCCOc2ncnc3ccccc23)c1 [Example 196, 4-[3-(3-trifluoromethylphenyl)propoxy]quinazoline] | 0% |
| CCC(COc1ncnc2c(F)cccc12)c1ccc(-c2ccccc2)cc1 (stereo not shown) [Example 197, 8-fluoro-4-[2-(1,1'-biphenyl)-4-ylbutoxy)quinazoline] | 0% |

same assay, conditions: Diabrotica; percent mortality; soil treatment, CRW rate 24.00 ppm; read-out: CRW RESULTS %

| SMILES | mortality at 24 ppm |
| --- | --- |
| FC(F)(F)c1cccc(Oc2ccc(CCOc3ncnc4ccccc34)cc2)c1 [Example 188, 4-[2-[4-[3-(trifluoromethyl)phenoxy]phenyl]ethoxy]quinazoline] | 100% |
| Cc1ccc2ncnc(NCCc3cccc(Oc4ccccc4)c3)c2c1 [Example 190, 6-methyl-N-[2-(3-phenoxyphenyl)ethyl]-4-quinazolinamine] | 0% |
| CC(C)c1ccccc1CCOc1ncnc2c(F)cccc12 [Example 195, 8-fluoro-4-[2-[2-(i-propyl)phenyl]ethoxy]quinazoline] | 0% |
| FC(F)(F)c1cccc(CCCOc2ncnc3ccccc23)c1 [Example 196, 4-[3-(3-trifluoromethylphenyl)propoxy]quinazoline] | 0% |
| CCC(COc1ncnc2c(F)cccc12)c1ccc(-c2ccccc2)cc1 (stereo not shown) [Example 197, 8-fluoro-4-[2-(1,1'-biphenyl)-4-ylbutoxy)quinazoline] | 0% |

tested on: melon aphids (Aphis gossypii Glover); experiment: Mite/insect screen, sprayed squash cotyledons (MA); format: in vivo; details: Aphis gossypii, percent mortality; spray rate 200 ppm; read-out: MA RESULTS %
Method in brief: (§1)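 Mortality and phytotoxicity read after standard exposure periods on sprayed squash: cotyledons for melon aphids and twospotted spider mites, excised leaves placed with southern armyworm larvae. Spray solutions were water dilutions of acetone/alcohol stocks containing TOXIMUL R and S emulsifiers, applied to runoff at 10 psi and air-dried one hour.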

| SMILES | mortality at 200 ppm |
| --- | --- |
| FC(F)(F)c1cccc(Oc2ccc(CCOc3ncnc4ccccc34)cc2)c1 [Example 188, 4-[2-[4-[3-(trifluoromethyl)phenoxy]phenyl]ethoxy]quinazoline] | 100% |
| Cc1ccc2ncnc(NCCc3cccc(Oc4ccccc4)c3)c2c1 [Example 190, 6-methyl-N-[2-(3-phenoxyphenyl)ethyl]-4-quinazolinamine] | 40% |
| CC(C)c1ccccc1CCOc1ncnc2c(F)cccc12 [Example 195, 8-fluoro-4-[2-[2-(i-propyl)phenyl]ethoxy]quinazoline] | 80% |
| FC(F)(F)c1cccc(CCCOc2ncnc3ccccc23)c1 [Example 196, 4-[3-(3-trifluoromethylphenyl)propoxy]quinazoline] | 0% |
| CCC(COc1ncnc2c(F)cccc12)c1ccc(-c2ccccc2)cc1 (stereo not shown) [Example 197, 8-fluoro-4-[2-(1,1'-biphenyl)-4-ylbutoxy)quinazoline] | 80% |

same assay, conditions: Aphis gossypii, percent mortality; spray rate 400 ppm; read-out: MA RESULTS %

| SMILES | mortality at 400 ppm |
| --- | --- |
| FC(F)(F)c1cccc(Oc2ccc(CCOc3ncnc4ccccc34)cc2)c1 [Example 188, 4-[2-[4-[3-(trifluoromethyl)phenoxy]phenyl]ethoxy]quinazoline] | 80% |
| Cc1ccc2ncnc(NCCc3cccc(Oc4ccccc4)c3)c2c1 [Example 190, 6-methyl-N-[2-(3-phenoxyphenyl)ethyl]-4-quinazolinamine] | 0% |
| CC(C)c1ccccc1CCOc1ncnc2c(F)cccc12 [Example 195, 8-fluoro-4-[2-[2-(i-propyl)phenyl]ethoxy]quinazoline] | 0% |
| FC(F)(F)c1cccc(CCCOc2ncnc3ccccc23)c1 [Example 196, 4-[3-(3-trifluoromethylphenyl)propoxy]quinazoline] | 0% |
| CCC(COc1ncnc2c(F)cccc12)c1ccc(-c2ccccc2)cc1 (stereo not shown) [Example 197, 8-fluoro-4-[2-(1,1'-biphenyl)-4-ylbutoxy)quinazoline] | 0% |

tested on: Erysiphe graminis tritici (powdery mildew); experiment: Greenhouse Test 1, foliar spray fungicide screen (POWD MDEW), host wheat; format: in vivo; details: disease control rating, 400 ppm (+++ at 100 ppm)

| SMILES | POWD MDEW |
| --- | --- |
| FC(F)(F)c1cccc(Oc2ccc(CCOc3ncnc4ccccc34)cc2)c1 [Example 188, 4-[2-[4-[3-(trifluoromethyl)phenoxy]phenyl]ethoxy]quinazoline] | +++ (+++ = 90-100% control at 100 ppm) |
| Cc1ccc2ncnc(NCCc3cccc(Oc4ccccc4)c3)c2c1 [Example 190, 6-methyl-N-[2-(3-phenoxyphenyl)ethyl]-4-quinazolinamine] | +++ (+++ = 90-100% control at 100 ppm) |
| CC(C)c1ccccc1CCOc1ncnc2c(F)cccc12 [Example 195, 8-fluoro-4-[2-[2-(i-propyl)phenyl]ethoxy]quinazoline] | +++ (+++ = 90-100% control at 100 ppm) |
| FC(F)(F)c1cccc(CCCOc2ncnc3ccccc23)c1 [Example 196, 4-[3-(3-trifluoromethylphenyl)propoxy]quinazoline] | ++ (++ = 90-100% control at 400 ppm) |
| CCC(COc1ncnc2c(F)cccc12)c1ccc(-c2ccccc2)cc1 (stereo not shown) [Example 197, 8-fluoro-4-[2-(1,1'-biphenyl)-4-ylbutoxy)quinazoline] | + (+ = 20-89% control at 400 ppm) |

tested on: Botrytis cinerea (gray mold); experiment: Greenhouse Test 1, foliar spray fungicide screen (GRAY MOLD), host grape berries; format: in vivo; details: disease control rating, 400 ppm (+++ at 100 ppm)

| SMILES | GRAY MOLD |
| --- | --- |
| FC(F)(F)c1cccc(Oc2ccc(CCOc3ncnc4ccccc34)cc2)c1 [Example 188, 4-[2-[4-[3-(trifluoromethyl)phenoxy]phenyl]ethoxy]quinazoline] | - (- = 0-19% control at 400 ppm) |
| Cc1ccc2ncnc(NCCc3cccc(Oc4ccccc4)c3)c2c1 [Example 190, 6-methyl-N-[2-(3-phenoxyphenyl)ethyl]-4-quinazolinamine] | - (- = 0-19% control at 400 ppm) |
| CC(C)c1ccccc1CCOc1ncnc2c(F)cccc12 [Example 195, 8-fluoro-4-[2-[2-(i-propyl)phenyl]ethoxy]quinazoline] | - (- = 0-19% control at 400 ppm) |
| FC(F)(F)c1cccc(CCCOc2ncnc3ccccc23)c1 [Example 196, 4-[3-(3-trifluoromethylphenyl)propoxy]quinazoline] | - (- = 0-19% control at 400 ppm) |
| CCC(COc1ncnc2c(F)cccc12)c1ccc(-c2ccccc2)cc1 (stereo not shown) [Example 197, 8-fluoro-4-[2-(1,1'-biphenyl)-4-ylbutoxy)quinazoline] | - (- = 0-19% control at 400 ppm) |

tested on: Puccinia recondita tritici (leaf rust); experiment: Greenhouse Test 1, foliar spray fungicide screen (LEAF RUST), host wheat; format: in vivo; details: disease control rating, 400 ppm (+++ at 100 ppm)

| SMILES | LEAF RUST |
| --- | --- |
| FC(F)(F)c1cccc(Oc2ccc(CCOc3ncnc4ccccc34)cc2)c1 [Example 188, 4-[2-[4-[3-(trifluoromethyl)phenoxy]phenyl]ethoxy]quinazoline] | +++ (+++ = 90-100% control at 100 ppm) |
| Cc1ccc2ncnc(NCCc3cccc(Oc4ccccc4)c3)c2c1 [Example 190, 6-methyl-N-[2-(3-phenoxyphenyl)ethyl]-4-quinazolinamine] | +++ (+++ = 90-100% control at 100 ppm) |
| CC(C)c1ccccc1CCOc1ncnc2c(F)cccc12 [Example 195, 8-fluoro-4-[2-[2-(i-propyl)phenyl]ethoxy]quinazoline] | +++ (+++ = 90-100% control at 100 ppm) |
| FC(F)(F)c1cccc(CCCOc2ncnc3ccccc23)c1 [Example 196, 4-[3-(3-trifluoromethylphenyl)propoxy]quinazoline] | - (- = 0-19% control at 400 ppm) |
| CCC(COc1ncnc2c(F)cccc12)c1ccc(-c2ccccc2)cc1 (stereo not shown) [Example 197, 8-fluoro-4-[2-(1,1'-biphenyl)-4-ylbutoxy)quinazoline] | - (- = 0-19% control at 400 ppm) |

tested on: Twospotted spider mites (Tetranychus urticae Koch); experiment: Mite/insect screen, sprayed squash cotyledons (SM); format: in vivo; details: Tetranychus urticae, percent mortality; spray rate 200 ppm; read-out: SM RESULTS %
Method in brief: as §1

| SMILES | mortality at 200 ppm |
| --- | --- |
| FC(F)(F)c1cccc(Oc2ccc(CCOc3ncnc4ccccc34)cc2)c1 [Example 188, 4-[2-[4-[3-(trifluoromethyl)phenoxy]phenyl]ethoxy]quinazoline] | 100% |
| Cc1ccc2ncnc(NCCc3cccc(Oc4ccccc4)c3)c2c1 [Example 190, 6-methyl-N-[2-(3-phenoxyphenyl)ethyl]-4-quinazolinamine] | 80% |
| CC(C)c1ccccc1CCOc1ncnc2c(F)cccc12 [Example 195, 8-fluoro-4-[2-[2-(i-propyl)phenyl]ethoxy]quinazoline] | 0% |
| FC(F)(F)c1cccc(CCCOc2ncnc3ccccc23)c1 [Example 196, 4-[3-(3-trifluoromethylphenyl)propoxy]quinazoline] | 0% |
| CCC(COc1ncnc2c(F)cccc12)c1ccc(-c2ccccc2)cc1 (stereo not shown) [Example 197, 8-fluoro-4-[2-(1,1'-biphenyl)-4-ylbutoxy)quinazoline] | 80% |

same assay, conditions: Tetranychus urticae, percent mortality; spray rate 400 ppm; read-out: SM RESULTS %

| SMILES | mortality at 400 ppm |
| --- | --- |
| Cc1ccc2ncnc(NCCc3cccc(Oc4ccccc4)c3)c2c1 [Example 190, 6-methyl-N-[2-(3-phenoxyphenyl)ethyl]-4-quinazolinamine] | 0% |
| CC(C)c1ccccc1CCOc1ncnc2c(F)cccc12 [Example 195, 8-fluoro-4-[2-[2-(i-propyl)phenyl]ethoxy]quinazoline] | 0% |
| FC(F)(F)c1cccc(CCCOc2ncnc3ccccc23)c1 [Example 196, 4-[3-(3-trifluoromethylphenyl)propoxy]quinazoline] | 0% |
| CCC(COc1ncnc2c(F)cccc12)c1ccc(-c2ccccc2)cc1 (stereo not shown) [Example 197, 8-fluoro-4-[2-(1,1'-biphenyl)-4-ylbutoxy)quinazoline] | 0% |

tested on: Pseudoperonospora cubensis (downy mildew); experiment: Greenhouse Test 1, foliar spray fungicide screen (DOWN MDEW), host squash; format: in vivo; details: disease control rating, 400 ppm (+++ at 100 ppm)

| SMILES | DOWN MDEW |
| --- | --- |
| FC(F)(F)c1cccc(Oc2ccc(CCOc3ncnc4ccccc34)cc2)c1 [Example 188, 4-[2-[4-[3-(trifluoromethyl)phenoxy]phenyl]ethoxy]quinazoline] | +++ (+++ = 90-100% control at 100 ppm) |
| Cc1ccc2ncnc(NCCc3cccc(Oc4ccccc4)c3)c2c1 [Example 190, 6-methyl-N-[2-(3-phenoxyphenyl)ethyl]-4-quinazolinamine] | +++ (+++ = 90-100% control at 100 ppm) |
| CC(C)c1ccccc1CCOc1ncnc2c(F)cccc12 [Example 195, 8-fluoro-4-[2-[2-(i-propyl)phenyl]ethoxy]quinazoline] | ++ (++ = 90-100% control at 400 ppm) |
| FC(F)(F)c1cccc(CCCOc2ncnc3ccccc23)c1 [Example 196, 4-[3-(3-trifluoromethylphenyl)propoxy]quinazoline] | - (- = 0-19% control at 400 ppm) |
| CCC(COc1ncnc2c(F)cccc12)c1ccc(-c2ccccc2)cc1 (stereo not shown) [Example 197, 8-fluoro-4-[2-(1,1'-biphenyl)-4-ylbutoxy)quinazoline] | - (- = 0-19% control at 400 ppm) |

tested on: Pyricularia oryzae (rice blast); experiment: not given; format: in vivo; details: disease control rating, foliar spray, host rice; 400 ppm (+++ at 100 ppm)

| SMILES | RICE BLAST |
| --- | --- |
| FC(F)(F)c1cccc(Oc2ccc(CCOc3ncnc4ccccc34)cc2)c1 [Example 188, 4-[2-[4-[3-(trifluoromethyl)phenoxy]phenyl]ethoxy]quinazoline] | +++ (+++ = 90-100% control at 100 ppm) |
| Cc1ccc2ncnc(NCCc3cccc(Oc4ccccc4)c3)c2c1 [Example 190, 6-methyl-N-[2-(3-phenoxyphenyl)ethyl]-4-quinazolinamine] | +++ (+++ = 90-100% control at 100 ppm) |
| CC(C)c1ccccc1CCOc1ncnc2c(F)cccc12 [Example 195, 8-fluoro-4-[2-[2-(i-propyl)phenyl]ethoxy]quinazoline] | +++ (+++ = 90-100% control at 100 ppm) |
| FC(F)(F)c1cccc(CCCOc2ncnc3ccccc23)c1 [Example 196, 4-[3-(3-trifluoromethylphenyl)propoxy]quinazoline] | - (- = 0-19% control at 400 ppm) |
| CCC(COc1ncnc2c(F)cccc12)c1ccc(-c2ccccc2)cc1 (stereo not shown) [Example 197, 8-fluoro-4-[2-(1,1'-biphenyl)-4-ylbutoxy)quinazoline] | + (+ = 20-89% control at 400 ppm) |

tested on: southern armyworm (Spodopetra eridania Cramer); experiment: Mite/insect screen, sprayed squash leaves (SAW); format: in vivo; details: Spodoptera eridania, percent mortality; spray rate 200 ppm; read-out: SAW RESULTS %
Method in brief: as §1

| SMILES | mortality at 200 ppm |
| --- | --- |
| FC(F)(F)c1cccc(Oc2ccc(CCOc3ncnc4ccccc34)cc2)c1 [Example 188, 4-[2-[4-[3-(trifluoromethyl)phenoxy]phenyl]ethoxy]quinazoline] | 0% |
| Cc1ccc2ncnc(NCCc3cccc(Oc4ccccc4)c3)c2c1 [Example 190, 6-methyl-N-[2-(3-phenoxyphenyl)ethyl]-4-quinazolinamine] | 0% |
| CC(C)c1ccccc1CCOc1ncnc2c(F)cccc12 [Example 195, 8-fluoro-4-[2-[2-(i-propyl)phenyl]ethoxy]quinazoline] | 0% |
| FC(F)(F)c1cccc(CCCOc2ncnc3ccccc23)c1 [Example 196, 4-[3-(3-trifluoromethylphenyl)propoxy]quinazoline] | 0% |
| CCC(COc1ncnc2c(F)cccc12)c1ccc(-c2ccccc2)cc1 (stereo not shown) [Example 197, 8-fluoro-4-[2-(1,1'-biphenyl)-4-ylbutoxy)quinazoline] | 0% |

same assay, conditions: Spodoptera eridania, percent mortality; spray rate 400 ppm; read-out: SAW RESULTS %

| SMILES | mortality at 400 ppm |
| --- | --- |
| FC(F)(F)c1cccc(Oc2ccc(CCOc3ncnc4ccccc34)cc2)c1 [Example 188, 4-[2-[4-[3-(trifluoromethyl)phenoxy]phenyl]ethoxy]quinazoline] | 80% |
| Cc1ccc2ncnc(NCCc3cccc(Oc4ccccc4)c3)c2c1 [Example 190, 6-methyl-N-[2-(3-phenoxyphenyl)ethyl]-4-quinazolinamine] | 0% |
| CC(C)c1ccccc1CCOc1ncnc2c(F)cccc12 [Example 195, 8-fluoro-4-[2-[2-(i-propyl)phenyl]ethoxy]quinazoline] | 0% |
| FC(F)(F)c1cccc(CCCOc2ncnc3ccccc23)c1 [Example 196, 4-[3-(3-trifluoromethylphenyl)propoxy]quinazoline] | 0% |
| CCC(COc1ncnc2c(F)cccc12)c1ccc(-c2ccccc2)cc1 (stereo not shown) [Example 197, 8-fluoro-4-[2-(1,1'-biphenyl)-4-ylbutoxy)quinazoline] | 0% |
